# Results reported in patent publication US20210361598A1, “COMPOUNDS FOR PREVENTION AND TREATMENT OF POST-INTENSIVE CARE COGNITIVE DYSFUNCTION AND COGNITIVE DYSFUNCTION RESULTING FROM RESPIRATORY DISTRESS” (Abrexa Pharmaceuticals, Inc., priority 2020, published 2021).
# Entries after “also recorded” stand apart in the source; their conditions may differ.
# Experiments:
# [1] = tested on: post-surgical cognitive dysfunction; settings: cited from earlier work; for Effect on post-surgical cognitive dysfunction: literature reports, after surgery
# [2] = tested on: neonatal hypoxic-ischemic brain injury in p10 C57BL6 mice; experiment: TTC staining infarct measurement in neonatal hypoxic-ischemic (HI) injury mouse model; format: in vivo
# Description: (§1) Postnatal day 10 mice were subjected to the modified Vanucci-Rice model of neonatal hypoxic-ischemic injury (permanent right common carotid artery ligation followed by 8% oxygen/balance nitrogen exposure) and then treatment started the same day by daily oral gavage with J147 at 10 mg/kg/day for 2 weeks after injury. Infarction volume, performance on functional tests of coordination, locomotion and memory, markers of neurogenesis, and apoptotic cell death were measured. Hypoxic-ischemic (HI) injury and J147 treatment: To induce HI injury, permanent right common carotid artery ligation was performed in p10 C57BL6 mice followed by 8% oxygen/balance nitrogen exposure for 45 min at 37° C. hypoxic chamber. From the day of HI injury, either J147 (10 mg/kg/day) or vehicle (corn oil, same volume) were once daily administered through oral gavage for a period of two weeks. TTC staining: 24 h after HI injury, 2 mm coronal brain sections were immersed in 1% 2,3,5-Triphenyltetrazolium chloride (TTC) at 37° C. for 30 min. Images of individual sections were digitized and infarct area was measured with the ImageJ software. Injury volumes were calculated using [contralateral hemisphere volume-(ipsilateral hemisphere volume-lesion volume)]/contralateral hemisphere volume×100.
# [3] = tested on: neonatal hypoxic-ischemic brain injury in p10 C57BL6 mice; experiment: Postmortem MRI volumetric measurement of lesion in neonatal HI mouse model; format: in vivo
# Description: Postnatal day 10 mice were subjected to the modified Vanucci-Rice model of neonatal hypoxic-ischemic injury (permanent right common carotid artery ligation followed by 8% oxygen/balance nitrogen exposure) and then treatment started the same day by daily oral gavage with J147 at 10 mg/kg/day for 2 weeks after injury. Infarction volume, performance on functional tests of coordination, locomotion and memory, markers of neurogenesis, and apoptotic cell death were measured. Hypoxic-ischemic (HI) injury and J147 treatment: To induce HI injury, permanent right common carotid artery ligation was performed in p10 C57BL6 mice followed by 8% oxygen/balance nitrogen exposure for 45 min at 37° C. hypoxic chamber. From the day of HI injury, either J147 (10 mg/kg/day) or vehicle (corn oil, same volume) were once daily administered through oral gavage for a period of two weeks. Magnetic resonance imaging (MRI): […] A 3D rapid acquisition with refocused echoes sequence was used (TE/TR=40/2000 ms, RARE factor=8, 4 signal averages, FOV=16.0 mm×9.0 mm×18.0 mm, matrix size=128×72×144, native resolution≈125×125×125 um3, time=3 h). Volumetric measurements were performed using ROI editor software.
# [4] = tested on: neonatal hypoxic-ischemic encephalopathy (HIE) in C57BL6 mice; experiment: TUNEL staining, dose dependency of apoptotic cell death in dentate gyrus, neonatal HIE mouse model; format: in vivo; settings: n=6, HIE untreated 141.7+56.6
# Description: C57BL6 mice were subjected to complete unilateral carotid blockage using cauterizer at P10 followed by 45 min hypoxic exposure at 8% O2, and this was followed by daily oral gavage delivery of J147 in a range of doses or vehicle at P10-P14. Then animals were sacrificed and processed for TUNEL staining. In sham group, very few TUNEL+ cells are observed in dentate gyrus (DG, 4.7+4.1/each). […] For 10 μg/g/day group and 25 μg/g/day group, 42.2+23 (p<0.001) and 31.7+21.4 (p<0.001) cells are found in DG (One-way ANOVA; n=6).
# [5] = tested on: neonatal hypoxic-ischemic brain injury in p10 C57BL6 mice; experiment: Open field test in HI mice; format: in vivo, mouse; settings: 4 days post HI
# Description: as §1, with “TTC staining: 24 h after HI injury, 2 mm coronal brain sections were immersed in 1% 2,3,5-Triphenyltetrazolium chloride (TTC) at 37° C. for 30 min. Images of individual sections were digitized and infarct area was measured with the ImageJ software. Injury volumes were calculated using [contralateral hemisphere volume-(ipsilateral hemisphere volume-lesion volume)]/contralateral hemisphere volume×100.” left out
# [6] = tested on: neonatal hypoxic-ischemic brain injury in p10 C57BL6 mice; experiment: Rotarod test in HI mice; format: in vivo, mouse; settings: 5 weeks after HI
# Description: as §1, with “TTC staining: 24 h after HI injury, 2 mm coronal brain sections were immersed in 1% 2,3,5-Triphenyltetrazolium chloride (TTC) at 37° C. for 30 min. Images of individual sections were digitized and infarct area was measured with the ImageJ software. Injury volumes were calculated using [contralateral hemisphere volume-(ipsilateral hemisphere volume-lesion volume)]/contralateral hemisphere volume×100.” left out
# [7] = tested on: neonatal hypoxic-ischemic brain injury in p10 C57BL6 mice; experiment: Y-maze spontaneous alternation test in HI mice; format: in vivo, mouse; settings: 50 days after HI; p<0.001
# Description: as §1, with “TTC staining: 24 h after HI injury, 2 mm coronal brain sections were immersed in 1% 2,3,5-Triphenyltetrazolium chloride (TTC) at 37° C. for 30 min. Images of individual sections were digitized and infarct area was measured with the ImageJ software. Injury volumes were calculated using [contralateral hemisphere volume-(ipsilateral hemisphere volume-lesion volume)]/contralateral hemisphere volume×100.” left out
# [8] = tested on: neonatal hypoxic-ischemic brain injury in p10 C57BL6 mice; experiment: Neural precursor marker fluorescence staining in HI mice; format: in vivo, mouse
# [9] = tested on: neonatal hypoxic-ischemia (HI) in mice; experiment: NeuN+ area and TUNEL+ cell count in hippocampus of HI mice
# Description: Neonatal hypoxic-ischemia (HI) was performed at P10 and daily 10 μg/g J147 was gavage-fed from P10 to P14.
smiles,measurement,setting,value
Cc1cccc([C@H](C)c2cnc[nH]2)c1C [Dexmedetomidine],Effect on post-surgical cognitive dysfunction,[1],failed to show efficacy
COc1cccc(/C=N/N(C(=O)C(F)(F)F)c2ccc(C)cc2C)c1 [J147],Area of brain injury / lesion size by TTC staining (FIG. 2),"[2]; 24 hours after HI injury, J147 10 mg/kg/day oral gavage, 10 mg/kg/day",reduced lesion size; also recorded: reduced areal extent of injury; also recorded: significantly reduces the area of brain injury
same,"Infarct size as measured by TTC staining, reduction relative to HI controls","[2]; one day of J147 treatment, 10 mg/kg/day oral gavage, 24 h after HI injury, p<0.001",48%
same,"Ipsilateral hemisphere volume as percentage of contralateral hemisphere volume by MRI, area of brain injury (FIG. 3)","[3]; 50 days after hypoxia-ischemia injury, J147 10 mg/kg/day for 2 weeks, 10 mg/kg/day",reduced lesion size; also recorded: substantial reduction of effect compared with HI; also recorded: almost entirely reduces the area of brain injury
same,"MRI reduction in infarction volume, HIJ mice compared with untreated HI mice",[3]; MRI measurements at 50 days,~50%
same,MRI imaging reduction in lesion size,"[3]; adult mice, two weeks of J147 treatment 10 mg/kg/day oral gavage, p<0.001",88%
same,TUNEL+ cells in dentate gyrus,"[4]; 0.5 μg/g/day oral gavage P10-P14, p>0.05",123.2+51.5 cells
same,TUNEL+ cells in dentate gyrus,"[4]; 1 μg/g/day oral gavage P10-P14, p>0.05",107.8+42.7 cells
same,TUNEL+ cells in dentate gyrus,"[4]; 5 μg/g/day oral gavage P10-P14, p<0.01",55+23.6 cells
same,TUNEL+ cells in dentate gyrus,"[4]; 10 μg/g/day oral gavage P10-P14, p<0.001",42.2+23 cells
same,TUNEL+ cells in dentate gyrus,"[4]; 25 μg/g/day oral gavage P10-P14, p<0.001",31.7+21.4 cells
same,Performance in the open field test,[5],significant improvement
same,"Open field test performance, improvement",[5]; J147 treatment group,about 25%
same,Performance in the rotarod test,[6],significant improvement
same,"Rotarod test performance, improvement","[6]; chronic, J147 treatment group",about 25%
same,"Y-maze spatial learning task, improvement compared to HI controls",[7],33%
same,Tbr2-positive cells,[8]; at one week after injury,significant increase
same,Nestin-positive cells,[8]; one day and one week after injury,increased
same,NeuN+ area in hippocampus,"[9]; HI+J147, daily 10 μg/g gavage P10 to P14, SH 0.52, HI 0.32, p=0.0433",0.45 mm2/section
same,TUNEL+ apoptotic cells in hippocampus,"[9]; HI+J147, daily 10 μg/g gavage P10 to P14, SH 36.33, HI 372.67, p=0.0092",208.17 /section
same,Reduction in apoptotic cell death in the hippocampus,"[9]; J147 treatment, summary",roughly 50%
[Mg+2] [Magnesium],Effect on post-surgical cognitive dysfunction,[1],failed to reduce post-surgical cognitive dysfunction
CCN(C)C(=O)Oc1cccc([C@H](C)N(C)C)c1 [Rivastigmine],Safety in seriously ill patients after surgery,"[1]; clinical investigation NCT00835159, terminated",too dangerous
same,Effect on post-surgical cognitive dysfunction,[1],no efficacy was observed
COc1cc2c(cc1OC)C(=O)C(CC1CCN(Cc3ccccc3)CC1)C2 (stereo not shown) [donepezil],Effect on the overall cognitive index,[1]; patients with cognitive decline one year after cardiac surgery,had no effect
